Measurements reported in PubChem BioAssay AID200 (DTP/NCI, 2004).
Where “and” joins values, the source holds several entries; their conditions need not be identical. Equal values may be shown once. Inconclusive results and toxic doses are left out. How the source made its calls: active means survival T/C of 150% or more; inactive means T/C below 125% in these data.

Tested on: B6C3F1 mice, B16 melanoma ip, median survival T/C
Experiment: NCI In Vivo Anticancer Drug Screen. Data for tumor model B16 Melanoma (intraperitoneal) in B6C3F1 mice
Conditions: endpoint: median survival time, schedule: Q01DX009 (ip), higher = longer survival
Summary of the method: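 Transplantable tumor in mice; treated vs vehicle control groups; survival or tumor size measured; value = T/C ratio.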

[1] = dose: 12.5 mg/kg/injection, vehicle: saline with Tween-80
[2] = dose: 25.0 mg/kg/injection, vehicle: saline with Tween-80
[3] = dose: 50.0 mg/kg/injection, vehicle: saline with Tween-80
[4] = dose: 100.0 mg/kg/injection, vehicle: saline with Tween-80
[5] = dose: 200.0 mg/kg/injection, vehicle: saline with Tween-80
[6] = dose: 12.5 mg/kg/injection, vehicle: saline
[7] = dose: 25.0 mg/kg/injection, vehicle: saline
[8] = dose: 50.0 mg/kg/injection, vehicle: saline
[9] = dose: 25.0 mg/kg/injection, vehicle: Klucel (hydroxypropylcellulose) (HPC)
[10] = dose: 50.0 mg/kg/injection, vehicle: Klucel (hydroxypropylcellulose) (HPC)
[11] = dose: 100.0 mg/kg/injection, vehicle: Klucel (hydroxypropylcellulose) (HPC)
[12] = dose: 6.25 mg/kg/injection, vehicle: saline with Tween-80
[13] = dose: 3.12 mg/kg/injection, vehicle: saline with Tween-80
[14] = dose: 200.0 mg/kg/injection, vehicle: Klucel (hydroxypropylcellulose) (HPC)

Measured: T/C

CN(C)CCN1C(=O)c2cccc3cc(N)cc(c23)C1=O
inactive: dose: 1.0 mg/kg/injection, vehicle: saline with Tween-80 113 % of control and 102 % of control | dose: 2.0 mg/kg/injection, vehicle: acid diluted with saline 97 % of control | dose: 2.0 mg/kg/injection, vehicle: saline with Tween-80 101 % of control and 102 % of control | dose: 4.0 mg/kg/injection, vehicle: acid diluted with saline 106 % of control | dose: 4.0 mg/kg/injection, vehicle: saline with Tween-80 112 % of control and 113 % of control and 120 % of control | dose: 8.0 mg/kg/injection, vehicle: acid diluted with saline 111 % of control | dose: 8.0 mg/kg/injection, vehicle: saline with Tween-80 116 % of control and 118 % of control and 120 % of control | dose: 16.0 mg/kg/injection, vehicle: acid diluted with saline 110 % of control | dose: 16.0 mg/kg/injection, vehicle: saline with Tween-80 87 % of control

Brc1ccc(C[N+]23CN4CN(CN(C4)C2)C3)cc1
inactive: [1] 100 % of control | [2] 98 % of control | [3] 101 % of control | [4] 108 % of control | [5] 112 % of control

CCS(=O)(=O)OCCCCOS(=O)(=O)CC
inactive: [2] 97 % of control | [3] 100 % of control

COCC(CN1CCN(c2ccccc2OC)CC1)OC (stereo unspecified)
inactive: [6] 100 % of control | [7] 99 % of control | [8] 105 % of control

CC(C)(C)SCC(NC(=O)OCC1c2ccccc2-c2ccccc21)C(=O)O (stereo unspecified)
inactive: [9] 91 % of control | [10] 97 % of control | [11] 91 % of control and 92 % of control

NCC1CCC(C(=O)O)CC1 (stereo unspecified)
inactive: [1] 102 % of control | [2] 101 % of control | [3] 101 % of control | [4] 101 % of control | [5] 94 % of control

O=C(Nc1cc(Cl)ccc1C(=O)O)c1cccc(C[n+]2ccccc2)c1
inactive: [2] 101 % of control | [3] 94 % of control | [4] 94 % of control

O=C(Nc1ccc(Cl)c(Cl)c1)Nc1c(Oc2ccc(Cl)c(Cl)c2)ccc(Cl)c1S(=O)(=O)O
inactive: [12] 99 % of control | [1] 101 % of control | [2] 97 % of control | [3] 99 % of control | [4] 97 % of control | [5] 99 % of control

C/C=C(\C)c1cc(=O)c2c(C)cc3c(c2o1)C(=O)c1c(O)c(C2CC(C)(N(C)C)C(OC(C)=O)C(C)O2)cc(C2CC(N(C)C)C(O)C(C)O2)c1C3=O (stereo unspecified)
inactive: dose: 0.15 mg/kg/injection, vehicle: saline 110 % of control | dose: 0.15 mg/kg/injection, vehicle: suspension in saline 102 % of control | dose: 0.31 mg/kg/injection, vehicle: suspension in saline 114 % of control | dose: 0.62 mg/kg/injection, vehicle: suspension in saline 109 % of control

C/C=C1\C[C@@H]2C(OC)Nc3cc(O)c(OC)cc3C(=O)N2C1 (stereo partly specified)
inactive: dose: 0.03 mg/kg/injection, vehicle: suspension in saline 103 % of control | dose: 0.06 mg/kg/injection, vehicle: suspension in saline 109 % of control | dose: 0.12 mg/kg/injection, vehicle: suspension in saline 106 % of control

CCN(CC)c1ccc2[nH]c3c(C(N)=O)cc(=O)c(=O)c=3oc2c1
inactive: [1] 96 % of control | [2] 112 % of control

Oc1cc(O)cc(/C=C/c2ccc(O)c(O)c2)c1
inactive: dose: 6.25 mg/kg/injection, vehicle: DMSO 118 % of control | dose: 12.5 mg/kg/injection, vehicle: DMSO 111 % of control | dose: 50.0 mg/kg/injection, vehicle: DMSO 117 % of control | dose: 100.0 mg/kg/injection, vehicle: DMSO 113 % of control and 96 % of control

COc1ccc(/C(C#N)=C2\OC(=O)c3ccccc32)cc1OC
inactive: [13] 95 % of control | [12] 93 % of control | [1] 107 % of control | [2] 88 % of control | [3] 91 % of control | [5] 88 % of control

CCCC1C/C=C/C=C/C=C/C=C/C(OC2OC(C)C(O)C(N)C2O)CC(O)C(C(=O)O)C(O)CC(=O)CC(O)CCCC(=O)CC(O)C(CC)C(=O)O1 (stereo unspecified)
inactive: dose: 2.5 mg/kg/injection, vehicle: Klucel (hydroxypropylcellulose) (HPC) 114 % of control | dose: 5.0 mg/kg/injection, vehicle: Klucel (hydroxypropylcellulose) (HPC) 106 % of control | dose: 10.0 mg/kg/injection, vehicle: Klucel (hydroxypropylcellulose) (HPC) 104 % of control | dose: 20.0 mg/kg/injection, vehicle: Klucel (hydroxypropylcellulose) (HPC) 89 % of control

C[Si](C)(C)n1nnn(-c2ccccc2)c1=O
inactive: [1] 101 % of control and 103 % of control | [2] 100 % of control and 105 % of control | [3] 119 % of control and 100 % of control | [4] 92 % of control and 95 % of control | [5] 93 % of control and 101 % of control | dose: 400.0 mg/kg/injection, vehicle: saline with Tween-80 95 % of control

ClC1(Cl)Cc2ccccc21
inactive: dose: 18.0 mg/kg/injection, vehicle: saline with Tween-80 105 % of control | [2] 122 % of control | dose: 30.0 mg/kg/injection, vehicle: saline with Tween-80 107 % of control | [3] 99 % of control | dose: 83.33 mg/kg/injection, vehicle: saline with Tween-80 103 % of control | dose: 138.88 mg/kg/injection, vehicle: saline with Tween-80 100 % of control

ClC1=C(Cl)C(Cl)=C(Cl)C1=Cc1ccccc1
inactive: [13] 112 % of control | [12] 98 % of control | [1] 106 % of control | [2] 101 % of control

CN(C)CCNc1ccc([N+](=O)[O-])c2sc3ccccc3c(=O)c12
inactive: [12] 113 % of control | dose: 6.25 mg/kg/injection, vehicle: saline 105 % of control | [1] 117 % of control and 102 % of control | [6] 101 % of control | [2] 118 % of control | [7] 103 % of control | [8] 106 % of control

CC(C)(C)NC(C1=CC(C)(C)c2ccccc2C1=O)c1ccccc1 (stereo unspecified)
inactive: [10] 99 % of control | [11] 88 % of control | [14] 98 % of control

C[Si](C)(C)OSc1ccccc1[N+](=O)[O-]
inactive: dose: 12.5 mg/kg/injection, vehicle: Klucel (hydroxypropylcellulose) (HPC) 108 % of control | [9] 110 % of control | [10] 113 % of control | [11] 112 % of control | [14] 103 % of control | dose: 400.0 mg/kg/injection, vehicle: Klucel (hydroxypropylcellulose) (HPC) 89 % of control
